Measured values reported in patent EP0298890A2, “New 2-(P-isobutylphenyl)-propionic acid ester and process for the preparation thereof” (Sune Coma, Nuria, priority 1987, dated 1989).

Columns and labels:
[1] = test system: rat; experiment: phenylbenzoquinone test p.o. in the rat (analgesic effect); format: in vivo; conditions: comparison of ED₅₀ values
[2] = solubility in water; format: physicochemical; conditions: qualitative statement, no method given
[3] = test system: rat; experiment: carrageenin test p.o. in the rat (antiinflammatory effect); format: in vivo; conditions: comparison of ED₅₀ values

CC(C)Cc1ccc(C(C)C(=O)OCCN(C)C)cc1 (stereo not drawn) [I, N,N-dimethylaminoethanol 2-(p-isobutylphenyl)-propionate]
analgesic activity compared with the formula II compound [1]: twice as active as an analgesic
solubility in water compared with the formula II acid [2]: more soluble in water
antiinflammatory activity compared with the formula II compound [3]: same antiinflammatory activity
